Laboratory results reported in patent US12390467B2, “Necroptosis inducers or autophagy inhibitors or a combination thereof” (The University of Toledo, priority 2018, dated 2025).

Key:
Type in all cases: cell-based
[1] = target: T1, ABCG2 transporter (S1M180 cells) (Homo sapiens, UniProt Q9UNQ0, R482G); assay: Intracellular accumulation of rhodamine 123; conditions: 0.05-1 μM
T1 construct: intracellular accumulation of rhodamine 123 in ABCG2 overexpressing S1M180 cells; endogenous in cells; host or cells: S1M180 colon cancer cells
T1 sequence (Q9UNQ0 whole entry R482G, one chain of several): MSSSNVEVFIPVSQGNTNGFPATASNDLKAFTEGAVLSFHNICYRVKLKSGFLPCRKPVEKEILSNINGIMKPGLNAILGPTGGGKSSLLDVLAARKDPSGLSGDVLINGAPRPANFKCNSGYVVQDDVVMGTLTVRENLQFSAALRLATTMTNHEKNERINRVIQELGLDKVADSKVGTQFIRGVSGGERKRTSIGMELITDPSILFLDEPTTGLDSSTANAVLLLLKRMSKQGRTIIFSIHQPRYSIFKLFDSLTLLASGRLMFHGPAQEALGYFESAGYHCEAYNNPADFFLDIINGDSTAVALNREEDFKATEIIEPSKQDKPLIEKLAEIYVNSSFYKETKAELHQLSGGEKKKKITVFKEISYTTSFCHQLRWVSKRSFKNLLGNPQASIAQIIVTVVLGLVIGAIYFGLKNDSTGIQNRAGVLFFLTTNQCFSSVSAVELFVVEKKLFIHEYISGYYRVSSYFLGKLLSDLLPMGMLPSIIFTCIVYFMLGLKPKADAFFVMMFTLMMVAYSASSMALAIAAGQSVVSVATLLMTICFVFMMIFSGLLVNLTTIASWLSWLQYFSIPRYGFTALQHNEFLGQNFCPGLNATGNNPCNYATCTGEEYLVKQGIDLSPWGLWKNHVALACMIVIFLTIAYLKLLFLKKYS
Protocol: FIG. 26: TPH104 reverses multidrug resistance by blocking the function of ABCG2 transporter. The effect of TPH104 and nilotinib on the intracellular accumulation of rhodamine 123 in ABCG2 overexpressing S1M180 cells. The top image is a graph showing the concentration-dependent increase in the accumulation of rhodamine 123 in S1M180 cells incubated with TPH104. Red filled=control; sky blue filled=0.05 μM; brown filled=0.1 μM; dark blue filled=0.3 μM; lime green filled=1 μM of TPH104, respectively, and olive green=nilotinib, 5 μM. The bottom image is a bar graph representing the relative rhodamine 123 accumulation levels. The data shown as means±SEM of three independent experiments. *p<0.05; ***p<0.001 compared to the control.

[2] = system: LC3B-I, LC3B-II, LAMP1, Beclin-1, mTOR, ULK1, Rab7, Rab5 in BT-20 TNBC cells; assay: Western blot, autophagy markers
Protocol: The TNBC cells were seeded in a culture flask and incubated for 24 h. The cells were then incubated with different concentrations of the lead compounds and re-incubated for an additional 12 or 24 h. […] The bicinchoninic acid (BCA) was used to determine protein concentration in the cell extracts (G-BIOSCIENCES, St. Louis, MO, USA). […] The membrane was blocked using 5% milk in Tris-buffered Tween 20 saline for 30 minutes. The membrane was then incubated overnight with primary antibodies against Bak, Bax, Bcl-2, caspase9, caspase 3, caspase 7, PARP, cytochrome c, N-cadherin, E-cadherin, c-Myc, dishevelled segment polarity protein 3 (DVL3), dishevelled segment polarity protein 2 (DVL2), Vimentin, mitogen-activated protein kinase kinase (MAPKK also known as MEK1/2), β-catenin, low-density lipoprotein receptor-related protein 6 (LRP6), receptor-interacting protein kinase (RIP), phosphorylated RIP (p-RIP), mixed lineage kinase domain like pseudokinase(MLKL), Caspase 8, light chain 3 (LC3), lysosomal-associated membrane protein 1 (LAMP1), unc-51 like autophagy activating kinase 1 (ULK1), ras associated protein 7 (Rab7), ras associated protein 5 (Rab5), Beclin 1, mechanistic target of rapamycin (mTOR), tumor necrosis factor alpha (TNF-α), tumor necrosis factor receptor 1 (TNFR1), tumor necrosis factor receptor 2 (TNFR2), Fas-associated protein with death domain (FADD), Fas ligand (Fas), TNF-related apoptosis-inducing ligand (TRAIL), death receptor 5 (DR5), Tumor necrosis factor receptor type 1-associated DEATH domain (TRADD), receptor-interacting protein kinase 3 (RIP3), β-actin or GAPDH in 1:1000 dilution in 5% milk or 5% BSA at 4° C. Horseradish peroxidase-labeled (HRP) anti-rabbit or anti-mouse secondary antibodies (1:5,000 dilution) were added and incubated the next day for an additional 1 h. A ChemiDoc™ MP System imaging system from Bio-Rad (Hercules, CA, USA) was used for blots reading. Blots were used to obtain the protein bands, followed by quantification of the bands using image J software (NIH, Bethesda, MD, USA). All of the data were expressed as the ratio of β-actin or GAPDH.

[3] = system: MDA-MB231, MDA-MB468, and BT-20; assay: Cell colony formation assay; conditions: vs vehicle
Protocol: This assay was used to measure the size and rate of colony formation for TNBC cells, with or without TPH104, as previously reported. Briefly, in a 6-well cell culture plate, cells were seeded at a density of 250,000 cells/well and allowed to grow/attach overnight. The next day, the cells were incubated with different concentration of TPH104 (0.1, 1, or 10 μM) or vehicle and incubated for 12 h at 37° C. Following incubation, the cells were harvested, counted, and reseeded at a density of 500-800 cells/well (1 ml in each well), in a new 6-well plate, with complete medium for 10 days. The medium was changed every 2 days in order to prevent cell starvation. On the 10th day, the colonies were fixed with absolute methanol at room temperature for 30 minutes. Subsequently, cells were stained with 0.1% crystal violet dye (Sigma, USA) for an additional 30 minutes. Finally, the fixed and stained colonies were viewed, pictured (at 4, 10, and 20×) and counted using an EVOS-FLC microscope (Thermo Fisher Scientific, Wayne, MI, USA). The following equation was used to calculate the colony formation rate: Colony formation rate=number of colonies formed/number of seeded cells (500)×100% Trans-Well Migration Assay

## COc1ccc(O)c(/C=N/Nc2ncnc3scc(-c4ccc(C)cc4)c23)c1 [TPH104]
[1]
  intracellular accumulation of rhodamine 123: increased
[2]; 0.5, 1, 2, or 5 μM
  expression levels of ULK1, Rab5, and Rab7: significantly reduced
[2]; 0.5, 1, 2, or 5, 12 h
  LC3B-I levels: significantly increased
  LC3B-II: no significant increase
[2]; 1, 2, and 5 μM for 12 h
  expression of Beclin 1: significantly decreased
[2]; 1, 2, or 5 μM for 12 h
  expression of mTOR: significantly increased
[2]; 12 h
  expression levels of LAMP1: no significant change
[3]; 0.1, 1, 10 μM for 12 h
  colony formation rate: significantly inhibited
[3]; 1 and 10 μM, all 3 TNBC cell lines
  number and size of the colonies formed: significantly decreased
